According to PMC10065799, “High-throughput profiling of sequence recognition by tyrosine kinases and SH2 domains using bacterial peptide display” (eLife, 2023):
Read-outs that look alike come from different tables or passages of the source.

Assays:
Assay in all cases: pTyr-Var library bacterial peptide display kinase screen (enrichment scores)
[1] = tested on: EPHB1 kinase domain; type: biochemical, human; settings: for Screen: sheet EPHB1, effect of the variant peptide relative to its reference peptide in the pTyr-Var library screen (enrichment scores); for Screen (variant relative to reference peptide, measured in the pTyr-Var library screen): sheet "EPHB1", variant seq vs reference seq, bacterial peptide display enrichment
[2] = tested on: Fer kinase domain; type: biochemical, mouse; settings: sheet "Fer";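 further: log2 fold change in enrichment of variant over reference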
[3] = tested on: EPHB2 kinase domain; type: biochemical, human; settings: sheet EPHB2;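 further: log2 fold change in enrichment of variant over reference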
[4] = target: c-Src kinase domain (Homo sapiens, UniProt P12931); type: biochemical;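 further: log2 fold change in enrichment of variant over reference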
[5] = target: T1, c-Abl kinase domain (Mus musculus, UniProt P00520); type: biochemical; settings: sheet "Abl"; effect of variant peptide relative to its reference peptide in pTyr-Var library screen (enrichment);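 further: log2 fold change in enrichment of variant over reference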
T1 sequence (P00520 242-493 limits assumed): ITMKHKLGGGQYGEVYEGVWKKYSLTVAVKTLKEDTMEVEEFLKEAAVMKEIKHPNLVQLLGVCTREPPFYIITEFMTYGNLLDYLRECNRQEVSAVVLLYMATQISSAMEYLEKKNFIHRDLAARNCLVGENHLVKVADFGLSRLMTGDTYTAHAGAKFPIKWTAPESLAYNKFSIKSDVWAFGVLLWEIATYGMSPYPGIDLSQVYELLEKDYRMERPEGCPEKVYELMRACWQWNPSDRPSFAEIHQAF

[6] = value of the variant peptide against its reference peptide in the pTyr-Var library screen with Fer
[7] = effect of variant peptide relative to its reference peptide in the pTyr-Var library screen (enrichment scores)
[8] = sheet "Src", variant peptide versus its reference peptide in the pTyr-Var library screen
[9] = variant peptide relative to its reference peptide, pTyr-Var library screen enrichment
[10] = sheet "Src", effect of the variant peptide relative to its reference peptide in the pTyr-Var library screen
[11] = effect of the variant relative to its reference peptide in the pTyr-Var library screen

Sequence | Screen [1] | Screen [2, 6] | Screen [3, 7] | Screen [4, 10] | also measured
IQRSLYDCPAS [PDGFRA_Y762_R764C] | 2.32 | 2.142 | 2.388 | – | –
GSESDYIIMPN [SCARB1_Y133_V135I] | – | – | -0.2465 | – | Screen (variant relative to reference peptide, measured in the pTyr-Var library screen) [1]: -0.2975
LIGWRYDDPEV [HSPA9_Y128_R126W] | – | – | -0.9592 | – | –
QAPPIYLDVLG [NTRK1_Y791_V790I] | 1.721 | 2.26 | 1.355 | – | Screen [4, 8]: 1.261
VVTGPYEKPSL [KIR3DS1_Y221_L220P] | -2.822 | -4.323 | -3.858 | – | –
QNTGNYFDLFG [PTPN11_Y62_D61N_YF] | 0.2097 | – | 0.1444 | – | Screen [4, 8]: -1.162
MAPQMYESHLP [NCAPD2_Y6_F8S] | -3.091 | -1.098 | -2.267 | – | –
CPPKVYELMIA [ABL2_Y515_R519I] | -0.2414 | 0.2175 | -0.0581 | – | Screen [4]: 0.5796
NTVDFYDLFGG [PTPN11_Y63_G60V_YF] | – | – | – | – | Screen [2, 9]: -0.946; Screen [4, 8]: -0.792
QADVTYVNTQL [MERTK_Y872_I871T] | -1.632 | -3.553 | – | – | –
GFILMYDITNK [RAB3C_Y110_E115K] | – | – | -0.5126 | – | –
RCQDLYSARDL [SART1_Y249_R245C] | 1.546 | – | – | – | Screen [2, 9]: 2.483; Screen [4, 8]: 2.461
ADARMYGVLPR [PLP1_Y207_W212R] | – | – | -2.437 | – | Screen [4, 8]: -3.205
MKDLTYSSLCF [ALOX5_Y446_A447S] | 0.1163 | 1.165 | 0.3665 | 0.1056 | –
LQEQNYPAVDS [FAM114A1_Y115_L116P] | -2.139 | -1.861 | -0.9591 | – | –
FGMQLYQKFMH [GRB14_Y347_N349K_YF] | -1.356 | -1.436 | -1.587 | -0.6929 | –
QNTADYFDLFG [PTPN11_Y62_G60A_YF] | -0.5569 | – | -0.5539 | – | Screen [4, 8]: -1.145
QGFDTYFGFLL [ARSB_Y165_R160Q_YF] | 0.1277 | 0.9524 | 0.8549 | 0.07217 | –
KSSDVYVSFDC [SORL1_Y136_Y141C_YF] | – | – | – | – | Screen (variant relative to reference peptide, measured in the pTyr-Var library screen) [1]: -0.2812; Screen [2, 9]: -2.678; Screen [4, 8]: -0.3615
QVQQIYSDSDL [MIB1_Y376_R371Q] | – | 0.8951 | 1.36 | 0.02886 | –
AVIADYMFWLG [SPATA16_Y290_M286V] | – | – | -0.2895 | – | Screen (variant relative to reference peptide, measured in the pTyr-Var library screen) [1]: -0.3108; Screen [2, 9]: -0.04255
FEELVYETVRV [FSHB_Y76_K72E] | -1.125 | -0.5222 | -0.7932 | -0.8103 | –
KFEDVYVRICL [B3GALNT1_Y269_G271R] | – | -2.092 | – | -2.417 | –
TSIGNYFKPWF [DHCR24_Y299_N294T_YF] | 0.02902 | – | -0.167 | – | –
VNNLVYENING [FRS2_Y306_K303N] | 1.417 | 1.713 | 2.712 | 1.603 | –

Sequence | Screen [1] | Screen [2, 6] | Screen [3, 7] | Screen [4, 10] | also measured
AEFGLYAAMVR [VSX2_Y222_G223A_YF] | – | – | – | – | Screen (variant relative to reference peptide, measured in the pTyr-Var library screen) [1]: 1.956; Screen [4, 8]: -0.7281; Screen [3, 11]: 1.609; Screen [5]: 2.617
TSKLSYLDPRI [TOP1_Y723_N722S] | – | – | – | – | Screen (variant relative to reference peptide, measured in the pTyr-Var library screen) [1]: -2.938; Screen [3, 11]: -1.966
NTADFYDLFGG [PTPN11_Y63_G60A_YF] | – | – | – | – | Screen [2, 9]: -0.1929; Screen [4, 8]: -0.001161
HNVAIYEGFAL [ACTC1_Y168_P166A_YF] | -1.018 | -0.3735 | -1.285 | -0.2279 | –
WASGIYFVPKG [APBB1IP_Y340_R335W_YF] | 1.089 | 2.226 | 2.1 | 0.1676 | –
PEAALYGRFTF [FYN_Y440_I445F] | – | 0.7423 | – | 0.2008 | –
VFDHIYTTQSD [RET_Y928_L923V] | – | – | -2.18 | – | Screen [2, 9]: -1.691; Screen [4, 8]: -1.024
HLMLQYDAVVN [SLC25A32_Y152_R147H] | – | – | 1.051 | – | Screen [2, 9]: 1.415
DISEPYEVFRI [IRF8_Y107_K108E_YF] | – | 4.437 | – | 2.852 | –
SAAAIYMVRHP [PMP22_Y117_T118M] | 2.191 | – | 1.843 | – | Screen [4, 8]: -0.2351
LPPREYVVVPS [CAPN1_Y494_G492R] | -0.6929 | 0.6785 | -0.3372 | – | –
QPDLLYDHIQP [TRRAP_Y862_F860L] | – | – | – | – | Screen (variant relative to reference peptide, measured in the pTyr-Var library screen) [1]: 1.53; Screen [2, 9]: 1.063; Screen [4, 8]: 0.81; Screen [3, 11]: 2.501
RLEPVYFVAPA [LAMC2_Y250_D247E] | 0.4539 | – | 0.4501 | -0.2779 | –
ALTDNYMFVVI [HAGH_Y61_L64V_YF] | 0.4544 | 0.9324 | 0.5365 | – | –
MGGSLYFSFPD [HIKESHI_Y55_V54L_YF] | 2.816 | – | 2.441 | 0.1907 | –
ASFSLYEPAKM [MKI67_Y340_P338S] | -1.581 | -0.8096 | -1.997 | -1.253 | –
LAIERYVVVSK [RHO_Y136_C140S] | – | – | 0.1273 | – | –
PIAPVYAPSMV [ACAT1_Y331_A333P] | -0.08214 | 1.079 | 0.3731 | – | Screen [4]: -0.325
DAHFTYSRFPW [LY75_Y888_D884A_YF] | -0.9728 | – | -0.5554 | 0.1806 | –
MWGSDYVHLSR [MAP3K4_Y582_Q584H] | -1.547 | – | -2.255 | – | –
DNKALYDICFR [TUBB3_Y208_E205K] | – | – | – | – | Screen (variant relative to reference peptide, measured in the pTyr-Var library screen) [1]: -0.6777; Screen [2, 9]: -1.219; Screen [4, 8]: -0.8548; Screen [3, 11]: -1.114
QMVGMYAFSFM [AVPR2_Y124_S126F_YF] | 0.9458 | 2.024 | 0.9949 | -0.3615 | –
RQQQDYWLMDV [ANPEP_Y600_I603M] | -0.3 | -1.652 | -0.2938 | – | –
TTEHIYGDKFF [UBA7_Y524_N527K] | – | – | – | – | Screen [2, 9]: -2.246; Screen [4, 8]: 0.1479
